According to patent US20260184663A1, “INDENE COMPOUNDS, PHARMACEUTICAL COMPOSITIONS THEREOF, AND THEIR THERAPEUTIC APPLICATIONS” (NucMito Pharmaceuticals co. Ltd., priority 2022, published 2026):
Like-named read-outs stand apart in the source and are kept apart here.

Legend:
Assay type in all cases: cell-based
HeLa (cervical cancer) = assay: Antiproliferative activity (CCK-8 cell viability), HeLa; conditions: Homo sapiens, 72 h; for inhibition at 3.3 µM: Compound concentration: 3.3 μM; for inhibition at 10 µM: Compound concentration: 10 μM; for inhibition at 30 µM: Compound concentration: 30 μM
Outline: (§1)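 Cells grown in DMEM (HepG2, SW480), MEM (HeLa) or F-12K (A549), each with 10% FBS, then exposed to compound at 3.3, 10 or 30 μM for 72 h at 37 °C. CCK-8 absorbance at 450 nm; viability expressed as percent of DMSO-treated cells, graded as growth inhibition bands.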

HepG2 (liver cancer) = assay: Antiproliferative activity (CCK-8 cell viability), HepG2; conditions: Homo sapiens, 72 h, read-out: Antiproliferative activity in cancerous cells, HepG2 (inhibition of cell growth); for inhibition at 3.3 µM: Compound concentration: 3.3 μM; for inhibition at 10 µM: Compound concentration: 10 μM
Outline: as §1

[1] = test system: alpha-smooth muscle actin (α-SMA); assay: Inhibition of TGF-β induced expression of alpha-smooth muscle actin (α-SMA) in CFSC cells (western blot); conditions: compound at 10 μM, TGF-β (10 ng/mL), 24 hours, band intensity vs TGF-β only
Outline: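 Values are percent reduction of α-SMA band intensity relative to cells given TGF-β alone, quantified by Western blot densitometry with β-actin probed. Compound was applied at 10 μM alongside 10 ng/mL TGF-β to serum-free CFSC cultures for 24 h at 37 °C.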

SW480 (colon cancer) = assay: Antiproliferative activity (CCK-8 cell viability), SW480; conditions: Homo sapiens, 72 h; for inhibition at 3.3 µM: Compound concentration: 3.3 μM; for inhibition at 10 µM: Compound concentration: 10 μM; for inhibition at 30 µM: Compound concentration: 30 μM
Outline: as §1

[2] = test system: MDA-MB-231 (breast cancer); assay: Antiproliferative activity (CCK-8 cell viability), MDA-MB-231; conditions: Homo sapiens, 72 h, read-out: Antiproliferative activity in cancerous cells, MDA-MB-231 (inhibition of cell growth); for inhibition at 3.3 µM: Compound concentration: 3.3 μM; for inhibition at 10 µM: Compound concentration: 10 μM
Outline: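 MDA-MB-231 breast cancer cells, grown in DMEM with 10% FBS, were plated in 96-well plates at 2,000-5,000 cells/well. Once attached, they were exposed to compound and incubated at 37° C. for 72 h. Viability was then measured with CCK-8 (10 μL per well, 4 h at 37° C.) by absorbance at 450 nm, relative to DMSO vehicle wells.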

[3] = test system: B16F10 (malignant melanoma); assay: Antiproliferative activity (CCK-8 cell viability), B16F10; conditions: Mus musculus, 72 h; for inhibition at 3.3 µM: B16-F10, Compound concentration: 3.3 μM; for inhibition at 10 µM: B16-F10, Compound concentration: 10 μM; for inhibition at 30 µM: B16-F10, Compound concentration: 30 μM
Outline: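 B16F10 melanoma cells grown in DMEM with 10% FBS were plated in 96-well plates at 2,000-5,000 cells/well. After attachment they were exposed to compound in medium for 72 h at 37° C. CCK-8 solution (10 μL) was then added, and after 4 h at 37° C absorbance was read at 450 nm.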

[4] = test system: A549 (lung adenocarcinoma); assay: Antiproliferative activity (CCK-8 cell viability), A549; conditions: Homo sapiens, 72 h, read-out: Antiproliferative activity in cancerous cells, A549 (inhibition of cell growth); for inhibition at 3.3 µM: Compound concentration: 3.3 μM; for inhibition at 10 µM: Compound concentration: 10 μM
Outline: as §1

[5] = test system: A431 (epidermoid carcinoma); assay: Antiproliferative activity (CCK-8 cell viability), A431; conditions: Homo sapiens, 72 h; for inhibition at 3.3 µM: A-431, Compound concentration: 3.3 μM; for inhibition at 10 µM: A-431, Compound concentration: 10 μM; for inhibition at 30 µM: A-431, Compound concentration: 30 μM
Outline: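 A431 epidermoid carcinoma cells grown in DMEM with 10% FBS were plated at 2,000-5,000 cells/well in 96-well plates. After attachment they were exposed to compound at 3.3 μM, 10 μM, or 30 μM for 72 h at 37° C. Viability was then assessed by CCK-8 against DMSO vehicle-treated wells.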

[6] = read-out: Antiproliferative activity in cancerous cells, HELA (inhibition of cell growth)
[7] = read-out: Antiproliferative activity in cancerous cells, HELA
[8] = read-out: Antiproliferative activity in cancerous cells, SW480 (inhibition of cell growth)
[9] = read-out: Antiproliferative activity in cancerous cells, B16F10 (inhibition of cell growth)
[10] = read-out: Antiproliferative activity in cancerous cells, A431 (inhibition of cell growth)

CC1=C(CC(=O)O)c2ccc(F)cc2/C1=C\c1ccc(Oc2ccc(F)cc2)cc1 [C3, (Z)-2-(6-Fluoro-1-(4-(4-fluorophenoxy)benzylidene)-2-methyl-1H-inden-3-yl)-acetic acid]
< 30%: inhibition at 3.3 µM (HeLa (cervical cancer); [6]) | inhibition at 10 µM (HeLa (cervical cancer); [6]) | inhibition at 30 µM (HeLa (cervical cancer); [7]) | inhibition at 10 µM [1] | inhibition at 3.3 µM (SW480 (colon cancer); [8]) | inhibition at 10 µM (SW480 (colon cancer); [8]) | inhibition at 30 µM (SW480 (colon cancer); read-out: Antiproliferative activity in cancerous cells, SW480) | inhibition at 3.3 µM [2] | inhibition at 3.3 µM [3, 9]
≥ 50%: inhibition at 3.3 µM (HepG2 (liver cancer)) | inhibition at 10 µM (HepG2 (liver cancer)) | inhibition at 3.3 µM [5, 10] | inhibition at 10 µM [5, 10]
30 to 50%: inhibition at 10 µM [2] | inhibition at 10 µM [3, 9] | inhibition at 3.3 µM [4] | inhibition at 10 µM [4]

CC1=C(CC(=O)O)c2ccc(F)c(F)c2/C1=C\c1ccc(Oc2ccc(F)cc2)cc1 [C10, (Z)-2-(6,7-Difluoro-1-(4-(4-fluorophenoxy)benzylidene)-2-methyl-1H-inden-3-yl)acetic acid]
30 to 50%: inhibition at 3.3 µM (HepG2 (liver cancer)) | inhibition at 10 µM (HepG2 (liver cancer)) | inhibition at 3.3 µM [2] | inhibition at 3.3 µM [3, 9] | inhibition at 10 µM [4]
≥ 50%: inhibition at 3.3 µM (HeLa (cervical cancer); [6]) | inhibition at 10 µM (HeLa (cervical cancer); [6]) | inhibition at 10 µM (SW480 (colon cancer); [8]) | inhibition at 10 µM [2] | inhibition at 10 µM [3, 9] | inhibition at 10 µM [5, 10]
> 80%: inhibition at 10 µM [1]
< 30%: inhibition at 3.3 µM (SW480 (colon cancer); [8]) | inhibition at 3.3 µM [4] | inhibition at 3.3 µM [5, 10]

CC(C)c1ccc(/C=C2/C(Cc3ccc(F)cc3)=C(CC(=O)O)c3cc(F)ccc32)cc1 [D2, (Z)-2-(5-Fluoro-2-(4-fluorobenzyl)-1-(4-isopropylbenzylidene)-1H-inden-3-yl)-acetic acid]
> 80%: inhibition at 10 µM [1]
< 30%: inhibition at 3.3 µM (HepG2 (liver cancer)) | inhibition at 3.3 µM (SW480 (colon cancer); [8]) | inhibition at 3.3 µM [3, 9] | inhibition at 3.3 µM [5, 10]
30 to 50%: inhibition at 3.3 µM (HeLa (cervical cancer); [6]) | inhibition at 3.3 µM [4]
≥ 50%: inhibition at 10 µM (HeLa (cervical cancer); [6]) | inhibition at 30 µM (HeLa (cervical cancer); [6]) | inhibition at 10 µM (HepG2 (liver cancer)) | inhibition at 30 µM (HepG2 (liver cancer); Compound concentration: 30 μM) | inhibition at 10 µM (SW480 (colon cancer); [8]) | inhibition at 30 µM (SW480 (colon cancer); [8]) | inhibition at 3.3 µM [2] | inhibition at 10 µM [2] | inhibition at 30 µM ([2]; Compound concentration: 30 μM) | inhibition at 10 µM [3, 9] | inhibition at 30 µM [3, 9] | inhibition at 10 µM [4] | inhibition at 30 µM ([4]; Compound concentration: 30 μM) | inhibition at 10 µM [5, 10] | inhibition at 30 µM [5, 10]

O=C(O)CC1=C(CC2CCCC2)/C(=C/c2cccc(COc3ccccc3)c2)c2ccc(F)cc21 [A6, (Z)-2-(2-(Cyclopentylmethyl)-5-fluoro-1-(3-(phenoxymethyl)benzylidene)-1H-inden-3-yl)acetic acid]
> 80%: inhibition at 10 µM [1]
< 30%: inhibition at 3.3 µM (SW480 (colon cancer); [8])
≥ 50%: inhibition at 3.3 µM (HeLa (cervical cancer); [6]) | inhibition at 10 µM (HeLa (cervical cancer); [6]) | inhibition at 3.3 µM (HepG2 (liver cancer)) | inhibition at 10 µM (HepG2 (liver cancer)) | inhibition at 10 µM (SW480 (colon cancer); [8]) | inhibition at 3.3 µM [2] | inhibition at 10 µM [2] | inhibition at 3.3 µM [3, 9] | inhibition at 10 µM [3, 9] | inhibition at 3.3 µM [4] | inhibition at 10 µM [4] | inhibition at 3.3 µM [5, 10] | inhibition at 10 µM [5, 10]

CCC1=C(CC(=O)O)c2cc(F)ccc2/C1=C\c1ccc(Oc2ccc(F)cc2)cc1 [C6, (Z)-2-(2-Ethyl-5-fluoro-1-(4-(4-fluorophenoxy)benzylidene)-1H-inden-3-yl)acetic acid]
< 30%: inhibition at 3.3 µM (HepG2 (liver cancer))
≥ 50%: inhibition at 3.3 µM (HeLa (cervical cancer); [6]) | inhibition at 10 µM (HeLa (cervical cancer); [6]) | inhibition at 3.3 µM (SW480 (colon cancer); [8]) | inhibition at 10 µM (SW480 (colon cancer); [8]) | inhibition at 3.3 µM [2] | inhibition at 10 µM [2] | inhibition at 10 µM [3, 9] | inhibition at 10 µM [4] | inhibition at 10 µM [5, 10]
> 80%: inhibition at 10 µM [1]
30 to 50%: inhibition at 10 µM (HepG2 (liver cancer)) | inhibition at 3.3 µM [3, 9] | inhibition at 3.3 µM [4] | inhibition at 3.3 µM [5, 10]

CCc1ccc2c(c1)C(CC(=O)O)=C(C)/C2=C/c1cccc(COc2ccccc2)c1 [B11, (Z)-2-(5-Ethyl-2-methyl-1-(3-(phenoxymethyl)benzylidene)-1H-inden-3-yl)acetic acid]
< 30%: inhibition at 3.3 µM (HeLa (cervical cancer); [6])
≥ 50%: inhibition at 10 µM (HeLa (cervical cancer); [6]) | inhibition at 3.3 µM (HepG2 (liver cancer)) | inhibition at 10 µM (HepG2 (liver cancer)) | inhibition at 3.3 µM (SW480 (colon cancer); [8]) | inhibition at 10 µM (SW480 (colon cancer); [8]) | inhibition at 10 µM [2] | inhibition at 3.3 µM [3, 9] | inhibition at 10 µM [3, 9] | inhibition at 10 µM [4] | inhibition at 3.3 µM [5, 10] | inhibition at 10 µM [5, 10]
30 to 50%: inhibition at 3.3 µM [2] | inhibition at 3.3 µM [4]
> 80%: inhibition at 10 µM [1]

CC1=C(CC(=O)O)c2cc(F)ccc2/C1=C\c1ccc(CN(Cc2ccccn2)c2ccccc2)cc1 [B16, (Z)-2-(5-Fluoro-2-methyl-1-(4-((phenyl(pyridin-2-ylmethyl)amino)methyl)-benzylidene)-1H-inden-3-yl)acetic acid]
< 30%: inhibition at 3.3 µM (HepG2 (liver cancer)) | inhibition at 3.3 µM (SW480 (colon cancer); [8]) | inhibition at 10 µM (SW480 (colon cancer); [8]) | inhibition at 3.3 µM [5, 10]
30 to 50%: inhibition at 3.3 µM (HeLa (cervical cancer); [6]) | inhibition at 3.3 µM [3, 9]
≥ 50%: inhibition at 10 µM (HeLa (cervical cancer); [6]) | inhibition at 10 µM (HepG2 (liver cancer)) | inhibition at 3.3 µM [2] | inhibition at 10 µM [2] | inhibition at 10 µM [3, 9] | inhibition at 3.3 µM [4] | inhibition at 10 µM [4] | inhibition at 10 µM [5, 10]
> 80%: inhibition at 10 µM [1]

CC1=C(CC(=O)N2CCN(CCO)CC2)c2cc(F)ccc2/C1=C\c1ccc(Oc2ccc(F)cc2)cc1 [C37, (Z)-2-(5-Fluoro-1-(4-(4-fluorophenoxy)benzylidene)-2-methyl-1H-inden-3-yl)-1-(4-(2-hydroxyethyl)piperazin-1-yl)ethan-1-one]
> 80%: inhibition at 10 µM [1]
30 to 50%: inhibition at 30 µM ([5]; read-out: Antiproliferative activity in cancerous cells, A431)
< 30%: inhibition at 3.3 µM (HeLa (cervical cancer); [6]) | inhibition at 10 µM (HeLa (cervical cancer); [6]) | inhibition at 30 µM (HeLa (cervical cancer); [7]) | inhibition at 3.3 µM (HepG2 (liver cancer)) | inhibition at 10 µM (HepG2 (liver cancer)) | inhibition at 3.3 µM (SW480 (colon cancer); [8]) | inhibition at 10 µM (SW480 (colon cancer); [8]) | inhibition at 3.3 µM [2] | inhibition at 10 µM [2] | inhibition at 3.3 µM [3, 9] | inhibition at 10 µM [3, 9] | inhibition at 30 µM ([3]; read-out: Antiproliferative activity in cancerous cells, B16F10) | inhibition at 3.3 µM [4] | inhibition at 10 µM [4] | inhibition at 3.3 µM [5, 10] | inhibition at 10 µM [5, 10]
